The values below come from PMC7830570, “Substrate Scope for Human Histone Lysine Acetyltransferase KAT8” (International Journal of Molecular Sciences, 2021).

Assay [1] concerns the target T1, human KAT8 (residues 125–458) (Homo sapiens, UniProt Q9H7Z6).
T1 construct: Recombinant human KAT8 (residues 125–458) was expressed in E. coli; His tag; made in house; host or cells: E. coli
T1 sequence (Q9H7Z6 125-458): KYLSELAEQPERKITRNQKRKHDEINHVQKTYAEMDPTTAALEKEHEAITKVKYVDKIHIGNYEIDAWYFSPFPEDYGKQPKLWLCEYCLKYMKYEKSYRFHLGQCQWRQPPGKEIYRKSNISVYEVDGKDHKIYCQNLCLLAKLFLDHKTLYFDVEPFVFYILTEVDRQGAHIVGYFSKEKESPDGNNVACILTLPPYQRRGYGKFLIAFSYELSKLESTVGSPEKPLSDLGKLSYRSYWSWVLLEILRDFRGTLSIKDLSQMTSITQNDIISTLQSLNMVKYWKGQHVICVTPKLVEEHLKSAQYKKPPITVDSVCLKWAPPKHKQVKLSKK
In words: MALDI-TOF MS kinetics assay of KAT8-catalysed acetylation under steady-state conditions. Conditions: pH 7.4, 37 °C. In kind it is biochemical. Here is the method: Next, we investigated the catalytic efficiencies for the histone peptides that were observed as KAT8 substrates. Kinetics analyses were carried out under steady-state conditions by incubating saturating concentrations of AcCoA against different concentrations of histone peptides.
Histone peptides kinetics evaluation was carried out with a MALDI-TOF MS assay under steady-state conditions as previously described. Briefly, dilution series of H4K*16 peptides (1050 or 700–0 µM) were incubated with AcCoA (100 µM; > 5 x KM value of AcCoA) and the reactions were started by the addition of KAT8 (570 nM) in kinetic buffer (50 mM HEPES, 0.1 mM EDTA, 0.01% TRITON-X, pH = 7.4). AcCoA stock solutions in Milli-Q water were calibrated using a NanoDrop 2000 spectrophotometer (Thermo Scientific, Waltham, MA, USA), with molar extinction coefficient ε260nm = 16,400 M^−1 cm^−1. Reactions were incubated for 20 min at 37 °C, shaken at 750 rpm and quenched with TFA 10% in Milli-Q water at different time points within the linear production of acetylated peptides. Quantification of the acetylated peptide produced was extrapolated, at any concentration point, with FlexAnalysis software, considering all the ionic species. Kinetic parameters were obtained by fitting V0 values and histone peptide concentrations to the Michaelis–Menten equation using the GraphPad Prism 5 software. Kinetic experiments were carried out in replicates (n = 2 or 3) and final values are reported as the mean value ± SD.

The target in assay [2] is T1, human KAT8 (residues 125–458). The assay is described as follows: MALDI-TOF MS enzymatic assay of KAT8-catalysed acetylation of H4K*16 histone peptides. The class given is biochemical. Conditions: standard conditions: 2 µM KAT8, 100 µM histone peptide, 300 µM AcCoA, 50 mM HEPES, 0.1 mM EDTA, 1 mM DTT, pH 8.0, 37 °C. Here is the method: The biocatalytic potential of KAT8 was assessed through a MALDI-TOF MS based enzymatic assay. Human KAT8 was incubated in the presence of H4K*16 peptides and AcCoA under “standard conditions” (2 µM KAT8, 100 µM histone peptide, 300 µM AcCoA; assay buffer: 50 mM Hepes, 0.1 mM EDTA, 1 mM DTT, pH = 8.0) and the production of acetylated peptides was monitored at different time points. […] KAT8-catalysed acetylation of H4K16 was quantitative after 1 h, in line with previous findings (Figure 3a and Figure S17). […] This is an interesting observation, given the well-documented capacity of some histone lysine methyltransferases (KMTs) that introduce higher methylation states (i.e., Kme2 and Kme3) on histone tails starting from Kme as a substrate. […]
KAT8 enzymatic activity towards H4K*16 histone peptides was measured at different time points under standard conditions (2 µM KAT8, 100 µM peptide, 300 µM AcCoA) in reaction buffer (50 mM HEPES, 0.1 mM EDTA, 1 mM DTT, pH = 8.0) as previously described The reactions were performed in a final volume of 50 µL and shaken at 37 °C, using a Thermomixer C (750 rpm). KAT8 activity was stopped at a given time point by the addition of TFA 10% in Milli-Q water, and reactions were analysed by MALDI-TOF MS employing α-Cyano-4-hydroxycinnamic acid (CHCA) matrix.

Assay [3] has the same target. Conditions: lysine analogue on histone peptide; cited from earlier work. How it is done: The biocatalytic potential of KAT8 was assessed through a MALDI-TOF MS based enzymatic assay. Human KAT8 was incubated in the presence of H4K*16 peptides and AcCoA under “standard conditions” (2 µM KAT8, 100 µM histone peptide, 300 µM AcCoA; assay buffer: 50 mM Hepes, 0.1 mM EDTA, 1 mM DTT, pH = 8.0) and the production of acetylated peptides was monitored at different time points. […] KAT8-catalysed acetylation of H4K16 was quantitative after 1 h, in line w ... || Subsequently, we investigated the role of the geometrically constrained and steric lysine analogues for KAT8 catalysis. The KAT8-catalysed reaction of H4KE16 produced 64% of acetylated peptide after 1 h, and reached completion within 3 h (Figure 3i and Figure S17).

Consider “GGAK16RHRKVLRDNIQ [H4K16, histone H4 peptide, residues 13–27, with natural lysine at position 16]”, for which the “kcat^app” value in assay [1] (570 nM KAT8, 100 µM AcCoA, peptide 1050 or 700–0 µM, 50 mM HEPES, 0.1 mM EDTA, 0.01% TRITON-X, mean ± SD, n = 2 or 3, SD) stood at 0.25 ± 0.013 s⁻¹. Besides, the Km in assay [1] (570 nM KAT8, 100 µM AcCoA, peptide 1050 or 700–0 µM, 50 mM HEPES, 0.1 mM EDTA, 0.01% TRITON-X, mean ± SD, n = 2 or 3, SD, read-out: KM^app) was found to be 437 ± 107 µM. Further, the “kcat^app/KM^app” value in assay [1] (catalytic efficiency from kcat^app and KM^app) is 567 M⁻¹ s⁻¹. In addition, in assay [2], the “acetylated peptide produced after 1 h” value is recorded as “quantitative”.

For the substance γ-thialysine, the KAT8 substrate quality result in assay [3] is “excellent substrate”.

For the substance homolysine [hK], the KAT8 substrate quality entry in assay [3] is listed as “good KAT8 substrate”.

The Km is the concentration of substrate that gives half-maximal velocity.
